Assay results from patent publication US20250215039A1, “NUCLEOSIDES FOR TREATING CANCER” (PRIMEFOUR THERAPEUTICS, INC., priority 2022, published 2025).
Read-outs that look alike come from different tables or passages of the source.

Test system: cancer cell lines
Assay: Cancer cell proliferation activity (CellTiterGlo, 72 h)
Assay type: cell-based
Settings: 72 h, 72 h, read-out: IC50 cell proliferation
Procedure, shortened: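 Cells seeded overnight at 37 °C, then dosed with compound at 0.1% final DMSO and incubated 72 h at 37 °C (5% or 10% CO2 by medium).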

SMILES: Nc1nc(F)nc2c1ncn2[C@@H]1O[C@H](CO)[C@@H](O)[C@@H]1O [compound 170, (2R,3S,4S,5R)-2-(6-amino-2-fluoro-9H-purin-9-yl)-5-(hydroxymethyl)tetrahydrofuran-3,4-diol]
- IC50 (5637 (bladder)): 2.4 µM
- IC50 (CLS439 (bladder)): 45.5 µM
- IC50 (HS729 (muscle)): 3.52 µM
- IC50 (J82 (bladder)): 19.4 µM
- IC50 (JAR (placenta)): 45.9 µM
- IC50 (MT3 (breast)): 2 µM
- IC50 (PANCI (pancreas)): 16.6 µM
- IC50 (PC3 (prostate)): 2.54 µM
- IC50 (RD (muscle)): 11.9 µM
- IC50 (T24 (bladder)): 5.89 µM
- IC50 (Homo sapiens, 22Rv1, 72 h, 22RV1 (prostate)): 79.5 µM
- IC50 (Homo sapiens, 786-0, 72 h, 786O (kidney)): 29.6 µM
- IC50 (Homo sapiens, A204, 72 h, A204 (muscle)): 0.53 µM
- IC50 (Homo sapiens, A549, 72 h, A549 (lung)): 8.86 µM
- IC50 (Homo sapiens, A673, 72 h, A673 (bone)): 10.8 µM
- IC50 (Homo sapiens, A2780, 72 h, A2780 (ovary)): 7.16 µM
- IC50 (Homo sapiens, A-375, 72 h, A375 (skin)): 9.75 µM
- IC50 (Homo sapiens, A-431, 72 h, A431 (skin)): 11.1 µM
- IC50 (Homo sapiens, ACHN, ACHN (kidney)): 12.7 µM
- IC50 (Homo sapiens, ASPC1, 72 h, ASPC1 (pancreas)): 7.85 µM
- IC50 (Homo sapiens, BT-20, 72 h, BT20 (breast)): 38.2 µM
- IC50 (Homo sapiens, BXPC-3, 72 h, BXPC3 (pancreas)): 6.87 µM
- IC50 (Homo sapiens, C-33-A, C33A (endometrial)): 9.56 µM
- IC50 (Homo sapiens, CAKI-1, 72 h, CAKI1 (kidney)): 2.46 µM
- IC50 (Homo sapiens, COLO 205, 72 h, COLO205 (colon)): 2.8 µM
- IC50 (Homo sapiens, COLO-678, 72 h, COLO678 (colon)): 21.8 µM
- IC50 (Homo sapiens, Ca-Ski, CASKI (endometrial)): 107 µM
- IC50 (Homo sapiens, Caco-2, 72 h, CACO2 (colon)): 49.2 µM
- IC50 (Homo sapiens, Calu-6, 72 h, CALU6 (lung)): 17.3 µM
- IC50 (Homo sapiens, DLD-1, 72 h, DLD1 (colon)): 11.4 µM
- IC50 (Homo sapiens, DU-145, 72 h, DU145 (prostate)): 5.44 µM
- IC50 (Homo sapiens, EFO-21, 72 h, EFO21 (ovary)): 7.34 µM
- IC50 (Homo sapiens, EJ-28, 72 h, EJ28 (bladder)): 10.4 µM
- IC50 (Homo sapiens, Granta-519, 72 h, GRANTA-519 (hematological)): 1.66 µM
- IC50 (Homo sapiens, HCT-15, 72 h, HCT15 (colon)): 12.4 µM
- IC50 (Homo sapiens, HCT-116, 72 h, HCT116 (colon)): 5.26 µM
- IC50 (Homo sapiens, HEK293, 72 h, HEK293 (kidney)): 35.2 µM
- IC50 (Homo sapiens, HL-60, 72 h, HL-60 (hematological)): 2.05 µM
- IC50 (Homo sapiens, HT-29, 72 h, HT29 (colon)): 18.4 µM
- IC50 (Homo sapiens, HT-1080, 72 h, HT1080 (connective tissue)): 4.09 µM
- IC50 (Homo sapiens, HeLa, HELA (endometrial)): 6.72 µM
- IC50 (Homo sapiens, HepG2, 72 h, HEPG2 (liver)): 15.3 µM
- IC50 (Homo sapiens, Hs-578T, HS578T (breast)): 36.6 µM
- IC50 (Homo sapiens, IGROV-1, 72 h, IGROV1 (ovary)): 13.6 µM
- IC50 (Homo sapiens, IMR-90, 72 h, IMR90 (lung)): 11.8 µM
- IC50 (Homo sapiens, JEG-3, 72 h, JEG3 (placenta)): 56.8 µM
- IC50 (Homo sapiens, JIMT-1, 72 h, JIMT1 (breast)): 1.66 µM
- IC50 (Homo sapiens, K562, 72 h, K-562 (hematological)): 41.8 µM
- IC50 (Homo sapiens, Kasumi 1, 72 h, KASUMI-1 (hematological)): 0.55 µM
- IC50 (Homo sapiens, L-363, 72 h, L-363 (hematological)): 33 µM
- IC50 (Homo sapiens, LoVo, LOVO (colon)): 9.73 µM
- IC50 (Homo sapiens, MCF7, 72 h, MCF7 (breast)): 27.2 µM
- IC50 (Homo sapiens, MDA-MB-231, 72 h, MDAMB231 (breast)): 2.88 µM
- IC50 (Homo sapiens, MDA-MB-435, 72 h, MDAMB435 (skin)): 14.2 µM
- IC50 (Homo sapiens, MDA-MB-436, 72 h, MDAMB436 (breast)): 3.35 µM
- IC50 (Homo sapiens, MDA-MB-468, 72 h, MDAMB468 (breast)): 23.6 µM
- IC50 (Homo sapiens, MG-63, 72 h, MG63 (bone)): 15.5 µM
- IC50 (Homo sapiens, MHH-ES-1, 72 h, MHHES1 (bone)): 5.05 µM
- IC50 (Homo sapiens, MIA PaCa-2, 72 h, MIAPACA2 (pancreas)): 35.4 µM
- IC50 (Homo sapiens, MINO, MINO (hematological)): 0.61 µM
- IC50 (Homo sapiens, MV4-11, 72 h, MV4-11 (hematological)): 5.77 µM
- IC50 (Homo sapiens, NCI-H23, 72 h, NCI-H23 (lung)): 8.19 µM
- IC50 (Homo sapiens, NCI-H82, 72 h, NCIH82 (lung)): 21.3 µM
- IC50 (Homo sapiens, NCI-H292, 72 h, NCIH292 (lung)): 8.01 µM
- IC50 (Homo sapiens, NCI-H460, 72 h, NCIH460 (lung)): 32.5 µM
- IC50 (Homo sapiens, OVCAR-3, 72 h, OVCAR3 (ovary)): 1.13 µM
- IC50 (Homo sapiens, OVCAR-4, 72 h, OVCAR4 (ovary)): 16.3 µM
- IC50 (Homo sapiens, PLC-PRF-5, 72 h, PLCPRF5 (liver)): 20.1 µM
- IC50 (Homo sapiens, Panc1005, 72 h, PANC1005 (pancreas)): 5.7 µM
- IC50 (Homo sapiens, Ramos, RAMOS (hematological)): 5.1 µM
- IC50 (Homo sapiens, SAOS-2, 72 h, SAOS2 (bone)): 0.45 µM
- IC50 (Homo sapiens, SF-268, 72 h, SF268 (brain)): 16.3 µM
- IC50 (Homo sapiens, SF-295, 72 h, SF295 (brain)): 86.5 µM
- IC50 (Homo sapiens, SK-BR-3, 72 h, SKBR3 (breast)): 1.58 µM
- IC50 (Homo sapiens, SK-HEP1, 72 h, SKHEP1 (liver)): 5.36 µM
- IC50 (Homo sapiens, SK-LMS-1, 72 h, SKLMS1 (uterus)): 44.3 µM
- IC50 (Homo sapiens, SK-MEL-5, 72 h, SKMEL5 (skin; SKMELS [sic] in Table 9E)): 15.9 µM
- IC50 (Homo sapiens, SK-MEL-28, 72 h, SKMEL28 (skin)): 11.1 µM
- IC50 (Homo sapiens, SK-N-AS, SKNAS (brain)): 29.5 µM
- IC50 (Homo sapiens, SK-N-SH, SKNSH (brain)): 22.2 µM
- IC50 (Homo sapiens, SK-OV-3, 72 h, SKOV3 (ovary)): 4.22 µM
- IC50 (Homo sapiens, SNB-75, 72 h, SNB75 (brain)): 50.6 µM
- IC50 (Homo sapiens, SU-DHL10, 72 h, SU-DHL-10 (hematological)): 5.61 µM
- IC50 (Homo sapiens, SU-DHL-6, 72 h, SU-DHL-6 (hematological)): 38.6 µM
- IC50 (Homo sapiens, SW-620, 72 h, SW620 (colon)): 17.4 µM
- IC50 (Homo sapiens, TE-671, 72 h, TE671 (muscle)): 11.1 µM
- IC50 (Homo sapiens, THP-1, 72 h, THP-1 (hematological)): 5.86 µM
- IC50 (Homo sapiens, U2OS, U20S (bone; U2OS in Table 9E)): 13.8 µM
- IC50 (Homo sapiens, U-87 MG, U87MG (brain)): 5.59 µM
- IC50 (Homo sapiens, UMUC3, 72 h, UMUC3 (bladder)): 21.6 µM
- IC50 (Homo sapiens, UO-31, 72 h, UO31 (kidney)): 7.43 µM
- IC50 (Homo sapiens, WSU-NHL, WSU-NHL (hematological)): 1.91 µM
- IC50 (NCI-H358M, NCIH358M (lung)): 0.29 µM
- IC50 (PBMC, PBMC (hematological)): 0.29 µM
- IC50 (RD-ES, RDES (bone)): 35.3 µM
